Results as given in ChEMBL document CHEMBL4049450, “Discovery of 5-Azaindazole (GNE-955) as a Potent Pan-Pim Inhibitor with Optimized Bioavailability” (J Med Chem, 2017).
Converted amounts (≈) assume the structure as drawn. One block for each compound: values may come before it.

Experiments:
[1] = Metabolic stability in rat intestinal microsomes assessed as compound remaining after 60 mins in absence of NADPH/UDPGA; assay type: ADME, Intestine, Microsome; settings: for remaining at 1 h: intestinal microsomes, read-out: Stability; for Stability: microsomes, 1 h
[2] = Metabolic stability in rat intestinal microsomes assessed as compound remaining after 60 mins in presence of NADPH; assay type: ADME, Intestine, Microsome; settings: read-out: Stability
[3] = Metabolic stability in rat intestinal microsomes assessed as compound remaining after 60 mins in presence of UDPGA; assay type: ADME, Intestine, Microsome; settings: read-out: Stability
[4] = Metabolic stability in rat intestinal microsomes assessed as compound remaining after 60 mins in presence of NADPH/UDPGA; assay type: ADME, Intestine, Microsome; settings: for remaining at 1 h: intestinal microsomes, read-out: Stability; for Stability: microsomes, 1 h
[5] = biological target: T1, Serine/threonine-protein kinase pim-1 (Homo sapiens, UniProt P11309); test: Inhibition of PIM1 (unknown origin) using 5FAM-ARKRRRHPSGPPTA as substrate after 90 mins in presence of ATP by caliper microfluidic mobility shift assay
Target sequence in this assay (P11309 whole entry): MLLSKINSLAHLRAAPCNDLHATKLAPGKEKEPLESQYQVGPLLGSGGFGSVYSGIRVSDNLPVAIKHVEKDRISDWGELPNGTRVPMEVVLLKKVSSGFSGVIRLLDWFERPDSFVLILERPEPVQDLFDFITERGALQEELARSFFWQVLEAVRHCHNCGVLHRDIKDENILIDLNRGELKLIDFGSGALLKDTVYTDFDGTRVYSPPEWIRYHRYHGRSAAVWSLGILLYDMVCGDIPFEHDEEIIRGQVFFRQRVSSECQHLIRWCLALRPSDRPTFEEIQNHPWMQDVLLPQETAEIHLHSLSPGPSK

[6] = biological target: Serine/threonine-protein kinase pim-2 (Homo sapiens, UniProt Q9P1W9); test: Inhibition of PIM2 (unknown origin) using 5FAM-ARKRRRHPSGPPTA as substrate after 90 mins in presence of ATP by caliper microfluidic mobility shift assay
[7] = biological target: Serine/threonine-protein kinase pim-3 (Homo sapiens, UniProt Q86V86); test: Inhibition of PIM3 (unknown origin) using 5FAM-ARKRRRHPSGPPTA as substrate after 90 mins in presence of ATP by caliper microfluidic mobility shift assay
[8] = Metabolic stability in mouse intestinal microsomes assessed as compound remaining after 60 mins in absence of NADPH/UDPGA; assay type: ADME, Intestine, Microsome; settings: 1 h
[9] = Metabolic stability in mouse intestinal microsomes assessed as compound remaining after 60 mins in presence of NADPH/UDPGA; assay type: ADME, Intestine, Microsome; settings: 1 h
[10] = Metabolic stability in human intestinal microsomes assessed as compound remaining after 60 mins in absence of NADPH/UDPGA; assay type: ADME, Intestine, Microsome; settings: 1 h
[11] = Metabolic stability in human intestinal microsomes assessed as compound remaining after 60 mins in presence of NADPH/UDPGA; assay type: ADME, Intestine, Microsome; settings: 1 h
[12] = Metabolic stability in dog intestinal microsomes assessed as compound remaining after 60 mins in absence of NADPH/UDPGA; assay type: ADME, Canis lupus familiaris, Intestine, Microsome; settings: 1 h
[13] = Metabolic stability in dog intestinal microsomes assessed as compound remaining after 60 mins in presence of NADPH/UDPGA; assay type: ADME, Canis lupus familiaris, Intestine, Microsome; settings: 1 h
[14] = Metabolic stability in cynomolgus monkey intestinal microsomes assessed as compound remaining after 60 mins in absence of NADPH/UDPGA; assay type: ADME, Macaca fascicularis, Intestine, Microsome; settings: 1 h
[15] = Metabolic stability in cynomolgus monkey intestinal microsomes assessed as compound remaining after 60 mins in presence of NADPH/UDPGA; assay type: ADME, Macaca fascicularis, Intestine, Microsome; settings: 1 h
[16] = Kinetic solubility of compound at pH 7.4; settings: buffer
[17] = Clearance in rat liver microsomes; assay type: ADME, microsome
[18] = Clearance in rat hepatocytes; assay type: ADME, cell-based, Hepatocyte
[19] = Clearance in rat at 1 mg/kg, iv; assay type: ADME, organism-based; settings: in vivo
[20] = Oral bioavailability in rat at 5 mg/kg; assay type: ADME, organism-based; settings: in vivo
MM1.S = test: Antiproliferative activity against human MM1S cells after 72 hrs by CellTiter-Glo assay; assay type: functional, cell-based
Homo sapiens [21] = species on record: Homo sapiens; test: Inhibition of PIM in human MM1S cells assessed as reduction in S6 s235/236 phosphorylation by Western blot analysis; assay type: cell-based
Homo sapiens [22] = species on record: Homo sapiens; test: Inhibition of PIM in human […] cells assessed as reduction in BAD phosphorylation by Western blot analysis; assay type: cell-based
Homo sapiens [23] = species on record: Homo sapiens; test: Inhibition of PIM in human […] cells assessed as reduction in 4EBP1 phosphorylation by Western blot analysis; assay type: cell-based
[24] = biological target: T1, Serine/threonine-protein kinase pim-1; test: Inhibition of PIM1 (unknown origin) at 0.1 uM
Target sequence in this assay (P11309 whole entry, looked up): as the sequence (P11309 whole entry) above

[25] = biological target: Dual specificity protein kinase CLK1 (Homo sapiens) (UniProt P49759); test: Inhibition of CLK1 (unknown origin) at 0.1 uM
[26] = biological target: Receptor-type tyrosine-protein kinase FLT3 (Homo sapiens) (UniProt P36888); test: Inhibition of FLT3 (unknown origin) at 0.1 uM
hERG (KCNH2) [27] = biological target: T2, hERG (KCNH2) (Homo sapiens, UniProt Q12809); test: Inhibition of human ERG expressed in HEK293 cells at 10 uM after 5 mins by patch clamp assay; assay type: cell-based; settings: HEK293 cells that express hERG
hERG (KCNH2) [28] = biological target: T2, hERG (KCNH2); test: Inhibition of human ERG expressed in HEK293 cells at 1 uM after 5 mins by patch clamp assay; assay type: cell-based; settings: HEK293 cells that express hERG
Homo sapiens [29] = species on record: Homo sapiens; test: Inhibition of PIM in human MM1S cells assessed as reduction in S6 s240/244 phosphorylation by Western blot analysis; assay type: cell-based
[30] = Apparent permeability across apical to basolateral side in MDCK cells; assay type: ADME, cell-based, Canis lupus familiaris; settings: dog
[31] = Efflux ratio of apparent permeability in MDCK cells; settings: dog
Plasma = test: Drug level in rat plasma treated with N4-Phenylpyrimidine-2,4-diamine at 5 mg/kg, po; assay type: ADME, organism-based; settings: in vivo

Chain of Serine/threonine-protein kinase pim-2 (Q9P1W9 whole entry): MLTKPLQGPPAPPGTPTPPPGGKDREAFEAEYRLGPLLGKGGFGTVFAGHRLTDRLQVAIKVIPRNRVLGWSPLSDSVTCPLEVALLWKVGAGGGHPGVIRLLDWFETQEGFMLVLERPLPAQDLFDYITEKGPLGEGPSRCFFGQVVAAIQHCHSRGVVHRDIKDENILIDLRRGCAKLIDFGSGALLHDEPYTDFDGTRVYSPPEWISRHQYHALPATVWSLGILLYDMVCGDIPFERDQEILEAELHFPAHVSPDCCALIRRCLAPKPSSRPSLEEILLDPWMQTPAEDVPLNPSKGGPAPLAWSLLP
T2 sequence (Q12809 whole entry): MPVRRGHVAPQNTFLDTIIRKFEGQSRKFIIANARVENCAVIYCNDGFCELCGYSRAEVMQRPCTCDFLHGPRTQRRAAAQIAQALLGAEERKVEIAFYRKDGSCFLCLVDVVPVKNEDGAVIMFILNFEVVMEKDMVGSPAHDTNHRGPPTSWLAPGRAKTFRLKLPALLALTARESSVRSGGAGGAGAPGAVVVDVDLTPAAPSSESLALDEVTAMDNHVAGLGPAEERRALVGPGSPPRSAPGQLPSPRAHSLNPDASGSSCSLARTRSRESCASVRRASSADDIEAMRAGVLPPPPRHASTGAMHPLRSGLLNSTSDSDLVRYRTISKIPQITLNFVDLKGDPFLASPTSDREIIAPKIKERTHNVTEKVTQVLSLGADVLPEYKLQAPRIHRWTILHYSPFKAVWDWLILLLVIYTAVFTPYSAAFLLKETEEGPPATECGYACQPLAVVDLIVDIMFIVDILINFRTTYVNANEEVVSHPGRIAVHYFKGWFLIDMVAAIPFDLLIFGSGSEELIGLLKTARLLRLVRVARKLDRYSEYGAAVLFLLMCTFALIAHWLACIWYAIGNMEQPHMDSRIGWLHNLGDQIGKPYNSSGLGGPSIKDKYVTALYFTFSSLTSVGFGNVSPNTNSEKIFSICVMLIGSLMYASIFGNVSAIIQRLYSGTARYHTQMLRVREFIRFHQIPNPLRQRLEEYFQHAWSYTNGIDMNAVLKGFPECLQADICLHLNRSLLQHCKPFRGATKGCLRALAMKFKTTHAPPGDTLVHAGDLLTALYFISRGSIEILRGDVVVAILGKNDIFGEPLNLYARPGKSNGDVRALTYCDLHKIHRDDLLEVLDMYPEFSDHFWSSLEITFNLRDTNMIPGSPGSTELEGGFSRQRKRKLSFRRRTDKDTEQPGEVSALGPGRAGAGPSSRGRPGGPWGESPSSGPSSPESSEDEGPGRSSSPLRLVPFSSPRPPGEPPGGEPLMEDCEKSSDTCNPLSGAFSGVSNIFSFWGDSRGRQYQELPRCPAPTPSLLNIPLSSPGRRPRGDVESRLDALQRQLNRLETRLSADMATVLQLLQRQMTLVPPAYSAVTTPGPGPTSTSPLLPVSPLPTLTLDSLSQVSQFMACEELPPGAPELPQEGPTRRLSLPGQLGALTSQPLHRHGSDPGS
Chain of Receptor-type tyrosine-protein kinase FLT3 (Homo sapiens) (P36888 whole entry): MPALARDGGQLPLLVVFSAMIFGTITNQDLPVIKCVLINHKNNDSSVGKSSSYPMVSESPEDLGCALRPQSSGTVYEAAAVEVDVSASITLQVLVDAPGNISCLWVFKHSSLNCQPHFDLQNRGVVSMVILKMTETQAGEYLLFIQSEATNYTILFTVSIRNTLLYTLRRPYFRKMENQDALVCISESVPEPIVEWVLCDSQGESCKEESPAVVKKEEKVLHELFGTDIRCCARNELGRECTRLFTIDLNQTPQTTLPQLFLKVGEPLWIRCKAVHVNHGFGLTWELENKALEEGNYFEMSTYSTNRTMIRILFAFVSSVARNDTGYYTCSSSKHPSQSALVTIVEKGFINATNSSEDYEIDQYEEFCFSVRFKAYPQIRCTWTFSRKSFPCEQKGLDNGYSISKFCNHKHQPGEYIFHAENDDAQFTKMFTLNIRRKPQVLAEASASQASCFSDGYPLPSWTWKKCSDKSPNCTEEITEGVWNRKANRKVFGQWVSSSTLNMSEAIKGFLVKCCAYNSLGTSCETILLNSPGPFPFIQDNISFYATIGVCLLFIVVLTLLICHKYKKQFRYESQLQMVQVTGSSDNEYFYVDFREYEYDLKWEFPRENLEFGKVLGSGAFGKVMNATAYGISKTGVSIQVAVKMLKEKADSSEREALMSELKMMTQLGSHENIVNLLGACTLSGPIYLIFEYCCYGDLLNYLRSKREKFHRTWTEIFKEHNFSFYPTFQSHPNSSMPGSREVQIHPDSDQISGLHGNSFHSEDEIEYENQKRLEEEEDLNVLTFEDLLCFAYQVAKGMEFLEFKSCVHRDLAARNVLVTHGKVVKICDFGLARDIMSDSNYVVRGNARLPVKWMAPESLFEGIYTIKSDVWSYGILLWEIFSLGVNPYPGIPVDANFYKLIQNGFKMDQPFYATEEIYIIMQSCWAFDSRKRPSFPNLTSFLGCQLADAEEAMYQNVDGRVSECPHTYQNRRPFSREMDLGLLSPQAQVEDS
Chain of Dual specificity protein kinase CLK1 (Homo sapiens) (P49759 whole entry, looked up): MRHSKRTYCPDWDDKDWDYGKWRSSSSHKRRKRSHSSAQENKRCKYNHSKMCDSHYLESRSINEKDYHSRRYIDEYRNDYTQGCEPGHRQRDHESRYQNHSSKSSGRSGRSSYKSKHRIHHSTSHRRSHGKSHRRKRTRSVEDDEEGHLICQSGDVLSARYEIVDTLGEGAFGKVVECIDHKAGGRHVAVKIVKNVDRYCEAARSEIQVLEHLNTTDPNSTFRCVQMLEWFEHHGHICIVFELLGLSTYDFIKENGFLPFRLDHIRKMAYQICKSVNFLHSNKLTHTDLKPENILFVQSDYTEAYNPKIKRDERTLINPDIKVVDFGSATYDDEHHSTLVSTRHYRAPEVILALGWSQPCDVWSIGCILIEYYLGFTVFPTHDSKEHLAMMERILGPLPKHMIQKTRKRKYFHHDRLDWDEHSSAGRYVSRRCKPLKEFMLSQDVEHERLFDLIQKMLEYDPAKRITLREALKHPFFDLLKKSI

SMILES: Cc1cncc(-c2cc3c(ccn3-c3cccc(N4CCCNCC4)n3)cn2)n1
remaining at 1 h [1]: 98%
remaining at 1 h [2]: 100%
remaining at 1 h [3]: 104%
remaining at 1 h [4]: 102%
Ki [5]: 0.5 nM
Ki [6]: 9.6 nM
Ki [7]: 0.8 nM

SMILES: Cn1cc(-c2cc3c(-c4cccc(N5CCC[C@H](N)C5)n4)nn(C)c3cn2)cn1
remaining at 1 h [1]: 95%
remaining at 1 h [2]: 91%
remaining at 1 h [3]: 92%
remaining at 1 h [4]: 102%
Ki [5]: 38 nM
Ki [6]: 170 nM
Ki [7]: 23 nM

SMILES: CN1CCN(c2cc3c(-c4cccc(N5CCNCC5)n4)n[nH]c3cn2)CC1=O
solubility kinetic [16]: 93.4 µM (≈ 36.7 µg/mL)
CLhep predicted [17]: 31 mL/min/kg
CLhep predicted [18]: 18 mL/min/kg
Stability [1]: 130%
remaining at 1 h [2]: 120%
remaining at 1 h [3]: 56%
remaining at 1 h [4]: 42%
clearance [19]: 19 mL/min/kg
bioavailability [20]: 1.4%

SMILES: COc1ccc(-n2ncc3cnc(-c4cncc(C)n4)cc32)nc1N1CCC[C@H](N)C1
CLhep predicted [17]: 29 mL/min/kg
CLhep predicted [18]: 19 mL/min/kg
remaining at 1 h [4]: 101%
clearance [19]: 34 mL/min/kg
bioavailability [20]: 103%
Ki [5]: 0.018 to 0.03 nM
Ki [6]: 0.11 nM
Ki [7]: 0.008 to 0.02 nM
IC50 (MM1.S): 500 to 510 nM
inhibition (Homo sapiens [21]): Dose-dependent effect
inhibition (Homo sapiens [22]): Dose-dependent effect
inhibition (Homo sapiens [23]): Dose-dependent effect
inhibition [24]: 100%
inhibition [25]: 97%
inhibition [26]: 82%
inhibition at 5 min, 10 µM (hERG (KCNH2) [27]): 49%
inhibition at 5 min, 1 µM (hERG (KCNH2) [28]): 37%
inhibition (Homo sapiens [29]): Dose-dependent effect

SMILES: Cc1cncc(-c2cnc3cnn(-c4cccc(N5CCCNCC5)n4)c3c2)n1
remaining at 1 h [1]: 87%
remaining at 1 h [2]: 100%
remaining at 1 h [3]: 79%
remaining at 1 h [4]: 76%
Ki [5]: 0.8 nM
Ki [6]: 13 nM
Ki [7]: 0.4 nM

SMILES: CCn1cc(-c2cc3c(-c4cccc(N5CCC[C@@H](NC(C)=O)C5)n4)n[nH]c3cn2)cn1
Drug metabolism (Plasma): Metabolite_Detected

Other lines, results leading:

remaining at 1 h [1]: 96%
remaining at 1 h [2]: 59%
remaining at 1 h [3]: 103%
remaining at 1 h [4]: 62%
Ki [5]: 190 nM
Ki [6]: 630 nM
Ki [7]: 120 nM
SMILES: Cn1nc(-c2cccc(N3CCC[C@H](N)C3)n2)c2cc(-c3cccnc3)ncc21

Stability [1]: Stable
Stability [4]: Unstable
Stability [8]: Unstable
Stability [9]: Unstable
Stability [10]: Stable
Stability [11]: Stable
Stability [12]: Stable
Stability [13]: Stable
Stability [14]: Stable
Stability [15]: Stable
SMILES: Cn1cc(-c2cc3c(-c4cccc(N5CCC[C@@H](N)C5)n4)n[nH]c3cn2)cn1

solubility kinetic [16]: 38.5 µM (≈ 14.9 µg/mL)
CLhep predicted [17]: 33 mL/min/kg
CLhep predicted [18]: 35 mL/min/kg
Papp A→B [30]: 3.2 ×10⁻⁶ cm/s
efflux ratio [31]: 4.9
remaining at 1 h [1]: 103%
remaining at 1 h [2]: 97%
remaining at 1 h [3]: 40%
remaining at 1 h [4]: 59%
clearance [19]: 65 mL/min/kg
bioavailability [20]: 1.3%
Ki [5]: 0.02 to 0.022 nM
Ki [6]: 0.11 to 0.17 nM
Ki [7]: 0.04 to 0.041 nM
IC50 (MM1.S): 220 nM
SMILES: Cc1cncc(-c2cc3c(-c4cccc(N5CCCNCC5)n4)n[nH]c3cn2)n1

Stability [1]: Stable
Stability [4]: Unstable
Stability [8]: Unstable
Stability [9]: Unstable
Stability [10]: Stable
Stability [11]: Stable
Stability [12]: Stable
Stability [13]: Stable
Stability [14]: Stable
Stability [15]: Stable
SMILES: c1cncc(-c2cc3c(-c4cccc(N5CCCNCC5)n4)n[nH]c3cn2)c1

Stability [1]: Stable
Stability [4]: Unstable
Stability [8]: Unstable
Stability [9]: Unstable
Stability [10]: Stable
Stability [11]: Stable
Stability [12]: Stable
Stability [13]: Stable
Stability [14]: Stable
Stability [15]: Stable
SMILES: Cc1ccc(-c2n[nH]c3cnc(-c4cccnc4)cc23)nc1N1CC[C@@H](N)C1

remaining at 1 h [1]: 101%
remaining at 1 h [2]: 101%
remaining at 1 h [3]: 91%
remaining at 1 h [4]: 98%
Ki [5]: 0.7 nM
Ki [6]: 18 nM
Ki [7]: 1 nM
SMILES: Cc1cncc(-c2cc3c(-c4cccc(N5CCCNCC5)n4)nsc3cn2)n1
